# Reference: US9540359B2, “Dihydrooxazine or oxazepine derivatives having BACE1 inhibitory activity” (Shionogi & Co., Ltd., priority 2012, dated 2017)
# Target: Recombinant human BACE1 (Homo sapiens (Human), UniProt P56817)
# Test: Assay of BACE1 inhibiting activity (HTRF, substrate peptide cleavage)
# Type: biochemical
# Settings: 50% inhibitory concentration against enzymatic activity; 30° C., 3.5 hours, pH 5.0; read-out: IC50 value
# Experimental: 48.5 μL of substrate peptide solution (Biotin-[…]-Eu: X=ε-amino-n-capronic acid, Eu=Europium cryptate) was added to each well of 96-hole half-area plate (a black plate: Costar), and after addition of 0.5 μl of the compound of the present invention (DMSO solution) and 1 μl of Recombinant human BACE1 (R&D Systems), the reaction mixture was incubated at 30° C. for 3.5 hours. […] The final concentrations of the substrate peptide and Recombinant human BACE1 were adjusted to 18 nmol/L and 7.4 nmol/L, respectively, and the reaction was performed in sodium acetate buffer (50 mmol/L sodium acetate, pH 5.0, 0.008% Triton X-100). After the incubation for reaction, 50 μl of 8.0 μg/ml Streptavidin-XL665 (CIS bio international) dissolved in phosphate buffer (150 mmol/L K2HPO4-KH2PO4, pH 7.0, 0.008% Triton X-100, 0.8 mol/L KF) was added to each well and left stand at 30° C. for 45 minutes. After then, fluorescence intensity was measured (excitation wavelength: 320 nm, measuring wavelength: 620 nm and 665 nm) using Wallac 1420 multilabel counter (Perkin Elmer life sciences). Enzymatic activity was determined from counting ratio of each wavelength (10,000× Count 665/Count 620) and 50% inhibitory concentration against the enzymatic activity (IC50) was calculated.
# Sequence of Recombinant human BACE1 (P56817 46-501): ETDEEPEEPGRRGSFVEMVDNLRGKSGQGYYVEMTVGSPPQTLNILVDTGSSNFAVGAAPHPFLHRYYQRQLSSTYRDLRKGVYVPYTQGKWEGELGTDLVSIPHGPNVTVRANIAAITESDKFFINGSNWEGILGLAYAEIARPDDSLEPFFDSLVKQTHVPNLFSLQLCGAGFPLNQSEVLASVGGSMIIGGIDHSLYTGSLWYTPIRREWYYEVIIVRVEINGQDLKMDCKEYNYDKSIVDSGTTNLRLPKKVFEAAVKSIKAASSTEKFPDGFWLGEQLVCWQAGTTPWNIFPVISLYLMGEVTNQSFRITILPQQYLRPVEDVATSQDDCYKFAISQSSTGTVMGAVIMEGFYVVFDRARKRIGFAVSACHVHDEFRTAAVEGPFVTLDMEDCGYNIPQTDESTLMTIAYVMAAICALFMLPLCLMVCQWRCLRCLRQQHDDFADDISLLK
row,IC50 [nM],SMILES
1,94.2,CC1(C)C[C@@](C)(c2cc(NC(=O)c3ccc(C#N)cn3)ccc2F)N=C(N)O1 [Compound I-1]
2,77.3,CC12OC(N)=N[C@](CF)(c3cc(NC(=O)c4ccc(C#N)cn4)ccc3F)C1O2 (some centres unmarked) [Compound I-2]
3,90.2,Cc1cc(C#N)cnc1C(=O)Nc1ccc(F)c([C@]2(C(F)F)CCOC(N)=N2)c1 [Compound I-4]
4,153,C[C@@]1(c2cc(NC(=O)c3ccc(C#N)cn3)ccc2F)CCCOC(N)=N1 [Compound I-13]
5,96.8,C#C[C@@]1(c2cc(NC(=O)c3ccc(C#N)cn3)ccc2F)CCOC(N)=N1 [Compound I-14]
6,65.4,C#C[C@]1(c2cc(NC(=O)c3ccc(C#N)cn3)ccc2F)N=C(N)O[C@@H]2C[C@@H]21 [Compound I-21]
7,25,C[C@@]1(c2cc(NC(=O)c3ccc(C#N)cn3)ccc2F)CC2(COC2)OC(N)=N1 [Compound I-56]
8,13.6,C#C[C@]1(c2cc(NC(=O)c3cnc(OCF)cn3)ccc2F)N=C(N)O[C@@H]2COC[C@@H]21 [Compound I-72]
9,32.9,C[C@]1(c2cc(NC(=O)c3coc(C(F)F)n3)ccc2F)N=C(N)O[C@H](CF)[C@@H]1F [Compound I-86]
10,20.7,C[C@]1(c2cc(NC(=O)c3ccc(C#N)cn3)ccc2F)N=C(N)OC2(COC2)[C@@H]1F [Compound I-95]
11,113,C[C@H]1OC(N)=N[C@](CF)(c2cc(NC(=O)c3ccc(C#N)cn3)ccc2F)[C@H]1CF [Compound I-100]

# Same assay, conditions: bound stated for a list of compounds; 30° C., 3.5 hours, pH 5.0; read-out: IC50 values
row,IC50 [nM],SMILES
1,≤ 1000,Cc1cc(C#N)cnc1C(=O)Nc1ccc(F)c([C@@]2(C)N=C(N)O[C@H](CF)[C@@H]2F)c1 [Compound I-26]
2,≤ 1000,COC[C@@H]1C[C@@](CF)(c2cc(NC(=O)c3ccc(C#N)cn3)ccc2F)N=C(N)O1 [Compound I-37]
3,≤ 1000,NC1=N[C@@](c2cc(NC(=O)c3cnc(OCF)cn3)ccc2F)(C(F)F)CCCO1 [Compound I-47]
4,≤ 1000,C#C[C@]1(c2cc(NC(=O)c3coc(C(F)F)n3)ccc2F)N=C(N)O[C@@H]2COC[C@@H]21 [Compound I-73]
5,≤ 1000,C[C@]1(c2cc(NC(=O)c3coc(CF)n3)ccc2F)N=C(N)O[C@H](CF)[C@@H]1F [Compound I-85]
6,≤ 1000,N#Cc1ccc(C(=O)Nc2ccc(F)c([C@]34CCO[C@H]3COC(N)=N4)c2)nc1 [Compound I-108]
7,≤ 1000,N#Cc1ccc(C(=O)Nc2ccc(F)c([C@]34CCO[C@H]3[C@@H](CF)OC(N)=N4)c2)nc1 [Compound I-110]
8,≤ 1000,NC1=N[C@@]2(c3cc(NC(=O)c4cnc(OCF)cn4)ccc3F)CCO[C@H]2[C@@H](CF)O1 [Compound I-111]
9,≤ 1000,CO[C@H]1[C@@H](C(F)F)OC(N)=N[C@]1(C)c1cc(NC(=O)c2ccc(C#N)cn2)ccc1F [Compound I-116]
10,≤ 1000,CO[C@H]1[C@@H](C(F)F)OC(N)=N[C@]1(C)c1cc(NC(=O)c2cnc(OCF)cn2)ccc1F [Compound I-118]
11,≤ 1000,CO[C@H]1[C@@H](C(F)F)OC(N)=N[C@]1(C)c1cc(NC(=O)c2ccc(F)cn2)ccc1F [Compound I-119]

# System: β-Amyloid (Aβ) production in neuroblastoma SH-SY5Y cells (SH/APPwt)
# Test: Measurement of β-amyloid (Aβ) production inhibitory effect in cell
# Type: cell-based
# Settings: Homo sapiens, amount needed to inhibit Aβ production by 50%, Amyloid β1-40 in culture supernatant, 24 hours
# Experimental: Neuroblastoma SH-SY5Y cells (SH/APPwt) with human wild-type β-APP excessively expressed therein were prepared at 8×10^5 cells/mL, and 150 μl portions thereof were inoculated into each well of a 96-well culture plate (Falcon). The cells were cultured for 2 hours at 37° C. in a 5% gaseous carbon dioxide incubator. Then, a solution which have been preliminarily prepared by adding and suspending the compound of the present invention (DMSO (dimethyl sulfoxide) solution) so as to be 2 μl/50 μl medium was added to the cell sap. Namely, the final DMSO concentration was 1%, and the amount of the cell culture was 200 μl. After the incubation was performed for 24 hours from the addition of the test compound, 100 μl of the culture supernatant was collected from each fraction. The amount of the Aβ in each fraction was measured. The Aβ amount was measured as follows. 10 μl of a homogeneous time resolved fluorescence (HTRF) measurement reagent (Amyloid β1-40 peptide; CIS bio international) and 10 μl of the culture supernatant were put into a 384-well half area microplate (black microplate, Costar) and mixed with each other, and then left standing overnight at 4° C. while the light was shielded. Then, the fluorescence intensity (excitation wavelength: 337 nm, measurement wavelength: 620 nm and 665 nm) was measured with a micro plate reader (Artemis K-101; FURUNO […]). […]
row,IC50 [nM],SMILES
1,509,N#Cc1ccc(C(=O)Nc2ccc(F)c([C@]3(C(F)(F)F)CCOC(N)=N3)c2)nc1 [Compound I-38]
